Assay results published in US7863300B2, “Process to prepare pioglitazone via several novel intermediates” (Cadila Healthcare Limited, priority 2002, dated 2011).

Structure (SMILES): CCc1ccc(C(O)COc2ccc(C=O)cc2)nc1 (stereo not shown) [Compound 9a, 4-[2-(5-Ethyl-pyridin-2-yl)-2-hydroxy-ethoxy]-benzaldehyde]
- melting point: 83 °C
